Reference: paper PMC11938010, “Positive Charge in an Antimalarial Compound Unlocks Broad-Spectrum Antibacterial Activity” (JACS Au, 2025)
≈ marks a conversion by molar mass, not a printed value. Where two headings read alike, the source gives them in different places.

Key:
[1] = test system: Plasmodium falciparum NF54; experiment: P. falciparum in vitro drug sensitivity assay on asexual blood stage parasites ([3H]-hypoxanthine incorporation); assay type: cell-based; conditions: read-out: PfNF54 IC50
Escherichia coli ∆tolC = experiment: microbe, parasite or virus in culture; assay type: cell-based; conditions: for MIC / inhibition at 50 µM: Escherichia coli; for inhibition at 50 µM: read-out: Ec∆tolC inh. at 50 µM (%)
E. coli K12 = experiment: In vitro antibacterial activity (growth inhibition, OD600), E. coli wild-type; assay type: cell-based; conditions: Escherichia coli; for inhibition at 50 µM: Table 1 and main text
Acinetobacter baumannii = experiment: In vitro antibacterial activity (growth inhibition, OD600), A. baumannii; assay type: cell-based; conditions: for MIC: read-out: Ab MIC95
[2] = test system: Pseudomonas aeruginosa PA14; experiment: In vitro antibacterial activity (growth inhibition, OD600), P. aeruginosa; assay type: cell-based; conditions: PA14, 50 μM compound, Table 1 and main text, read-out: PA14 inh. at 50 μM
[3] = test system: Streptococcus pneumoniae (DSM20566); experiment: In vitro antibacterial activity (MIC), S. pneumoniae; assay type: cell-based; conditions: read-out: Sp MIC95
[4] = test system: Staphylococcus aureus ssp. Aureus; experiment: In vitro antibacterial activity (MIC), S. aureus; assay type: cell-based; conditions: read-out: Sa MIC95
[5] = test system: Mycobacterium tuberculosis (Mtb) strain H37Rv; experiment: microbe, parasite or virus in culture; assay type: cell-based; conditions: 168 h, 7 days, footnote b: not active at maximum solubility, read-out: MtbH37Rv MIC90
Solubility in 7H9 medium = assay type: physicochemical; conditions: M. tuberculosis growth medium (7H9)
in vitro = conditions: human, HepG2 CC50, 48 h, MTT
[6] = In vitro cytotoxicity by XTT assay; assay type: cell-based; conditions: human, human monocyte-derived macrophages (hMdM)
[7] = Plasmodium falciparum, NF54, Table 1 and main text
[8] = K12, 50 μM compound, read-out: EcK12 inh. at 50 μM
[9] = 50 μM compound, Table 1 and main text, read-out: Ab inh. at 50 μM
[10] = Streptococcus pneumoniae, DSM20566, Table 1 and main text
[11] = Streptococcus pneumoniae, DSM20566, Table S2, with standard deviation
[12] = Staphylococcus aureus, Table 1 and main text
[13] = Staphylococcus aureus, Table S2, with standard deviation

SMILES	IC50 [1, 7] [µM]	MIC (Escherichia coli ∆tolC; read-out: EcΔtolC MIC95) [µM]	MIC (Escherichia coli ∆tolC; read-out: Ec∆tolC MIC95 (µM)) [µM]	inhibition at 50 µM (E. coli K12; [8]) [%]	inhibition at 50 µM (Acinetobacter baumannii; [9]) [%]	inhibition at 50 µM [2] [%]	MIC [3, 10] [µM]	MIC [3, 11] [µM]	MIC [4, 12] [µM]	MIC [4, 13] [µM]	MIC90 [5] [µM]	7h9 media Sol. (Solubility in 7H9 medium) [µM]	CC50 (in vitro) [µM]	CC90 at 24 h [6] [µM]	other results
O=C(Nc1cccc(N2CCNCC2)c1)c1cc(-c2cc(Cl)ccc2O)[nH]n1 [Compound 5A]	0.13	21 (≈ 8.36 µg/mL)	21 ± 2 (≈ 8.36 µg/mL)	83	34	60	26 (≈ 10.3 µg/mL)	26 ± 1 (≈ 10.3 µg/mL)	37 (≈ 14.7 µg/mL)	37 ± 10 (≈ 14.7 µg/mL)	64 (≈ 25.5 µg/mL)	64	9		inhibition at 50 µM (Acinetobacter baumannii; 50 µM, Table S1, with standard deviation, read-out: Ab inh. at 50 µM (%)): 34.3 ± 0.4%
O=C(Nc1cccc(CN2CCNCC2)c1)c1cc(-c2cc(Cl)ccc2O)[nH]n1 [Compound 3A]	0.62	45 (≈ 18.5 µg/mL)	45 ± 1 (≈ 18.5 µg/mL)	28	21	50	40 (≈ 16.5 µg/mL)	40 ± 7 (≈ 16.5 µg/mL)	> 50	> 50	> 64	64	12		
N=C(N)N1CCN(c2cc(NC(=O)c3cc(-c4cc(Cl)ccc4O)[nH]n3)ccc2C(F)(F)F)CC1 [Compound 13G, N-(3-(4-Carbamimidoylpiperazin-1-yl)-4-(trifluoromethyl)phenyl)-5-(5-chloro-2-hydroxyphenyl)-1H-pyrazole-3-carboxamide]	0.5	5 (≈ 2.54 µg/mL)	5 ± 2 (≈ 2.54 µg/mL)		≥ 45	17	16 (≈ 8.13 µg/mL)	16 ± 6 (≈ 8.13 µg/mL)	2.5 (≈ 1.27 µg/mL)	2.5 ± 0.3 (≈ 1.27 µg/mL)	8 (≈ 4.06 µg/mL)		> 25	> 32	inhibition at 50 µM (E. coli K12; K12, read-out: EcK12 inh. at 50 μM, 50 μM compound): ≥ 45%
NCc1cccc(NC(=O)c2cc(-c3cc(Cl)ccc3O)[nH]n2)c1 [Compound 7A]	0.3	47 (≈ 16.1 µg/mL)	47 ± 1 (≈ 16.1 µg/mL)	27	15	44	43 (≈ 14.7 µg/mL)	43 ± 11 (≈ 14.7 µg/mL)	> 50	> 50	> 64	64	28.4		
N=C(N)NCc1ccc(NC(=O)c2cc(-c3cc(Cl)ccc3O)[nH]n2)cc1C(F)(F)F [Compound 10G]	0.25	3.5 (≈ 1.58 µg/mL)	3.5 ± 0.8 (≈ 1.58 µg/mL)	86	49	55	16 (≈ 7.25 µg/mL)	16 ± 5 (≈ 7.25 µg/mL)	5 (≈ 2.26 µg/mL)	5 ± 1 (≈ 2.26 µg/mL)	8 (≈ 3.62 µg/mL)		> 50	> 32	
N=C(N)N1CCN(c2ccc(NC(=O)c3cc(-c4cc(Cl)ccc4O)[nH]n3)cc2C(F)(F)F)CC1 [Compound 12G, N-(4-(4-Carbamimidoylpiperazin-1-yl)-3-(trifluoromethyl)phenyl)-5-(5-chloro-2-hydroxyphenyl)-1H-pyrazole-3-carboxamide]	0.2	2.8 (≈ 1.42 µg/mL)	2.8 ± 0.3 (≈ 1.42 µg/mL)	51	33	< 10	31 (≈ 15.7 µg/mL)	31 ± 6 (≈ 15.7 µg/mL)	2.4 (≈ 1.22 µg/mL)	2.4 ± 0.3 (≈ 1.22 µg/mL)	4 (≈ 2.03 µg/mL)		30	32	
O=C(Nc1ccc(N2CCNCC2)cc1)c1cc(-c2cc(Cl)ccc2O)[nH]n1 [Compound 6A]	0.14	22.5 (≈ 8.95 µg/mL)	22.5 (≈ 8.95 µg/mL)	49	37	63	45 (≈ 17.9 µg/mL)	45 (≈ 17.9 µg/mL)	> 50	> 50	> 16	16	11.8		
N=C(N)N1CCN(c2cc(NC(=O)c3cc(-c4cc(Cl)ccc4O)[nH]n3)cc(C(F)(F)F)c2)CC1 [Compound 11G, N-(3-(4-Carbamimidoylpiperazin-1-yl)-5-(trifluoromethyl)phenyl)-5-(5-chloro-2-hydroxyphenyl)-1H-pyrazole-3-carboxamide]	0.5	4 (≈ 2.03 µg/mL)	4 ± 1 (≈ 2.03 µg/mL)			25	28 (≈ 14.2 µg/mL)	28 ± 15 (≈ 14.2 µg/mL)	3.2 (≈ 1.63 µg/mL)	3.2 ± 0.1 (≈ 1.63 µg/mL)	8 (≈ 4.06 µg/mL)		> 25	> 32	MIC (E. coli K12; K12, Table S1, printed inside the inhibition column, with standard deviation, unit from Table 1 footnote, read-out: EcK12 MIC95): 48 ± 5 µM (≈ 24.4 µg/mL); MIC (Acinetobacter baumannii; Table S1, printed inside the inhibition column, with standard deviation, unit from Table 1 footnote): 17 ± 5 µM (≈ 8.63 µg/mL); MIC (Acinetobacter baumannii; printed inside the Ab inhibition column, Table 1 and main text): 17 µM (≈ 8.63 µg/mL)
O=C(Nc1cccc(C(F)(F)F)c1)c1cc(-c2cc(Cl)ccc2O)[nH]n1 [Compound 1a]	0.21	> 50		< 10	< 10	< 10	> 50	> 50	> 50	> 50		< 8	> 50		inhibition at 50 µM (Escherichia coli ∆tolC): < 10%; EcΔtolC MIC95 (Escherichia coli ∆tolC; Table 1 and main text): >50 µM; MIC ([3]; Table 1 and main text): >50 µM; MIC ([4]; Table 1 and main text): >50 µM
NCc1ccc(NC(=O)c2cc(-c3cc(Cl)ccc3O)[nH]n2)cc1 [Compound 8A]	> 2	> 50					> 50	> 50	> 50	> 50	> 16	16	30		IC50 ([1]; Table 1 and main text): 1.8 µM; inhibition at 50 µM (Escherichia coli ∆tolC): 44 ± 16%
